In patent US20060069132A1, “Azolecarboxamide herbicides” (priority 2004, published 2006):

Key:
bermudagrass = assay: Test C pre-/postemergence herbicide test; assay type: in vivo, Cynodon dactylon; conditions: for Bermudagrass plant response rating: 500 g ai/ha
In short: (§1)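 Pre- and postemergence application, solvent/surfactant formulation; post at 1- to 4-leaf stage (2–18 cm). Greenhouse 12–14 d. Visual rating vs controls, 0 = no effect, 100 = complete control.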

eastern black nightshade = assay: Test C pre-/postemergence herbicide test; assay type: in vivo, Solanum ptycanthum; conditions: for Plant response rating (0 = no effect, 100 = complete control), Nightshade / Plant response rating, Nightshade: preemergence; for Nightshade plant response rating: Preemergence, scale 0 to 100, 0 no effect, 100 complete control
In short: as §1

[1] = tested on: common (oilseed) sunflower; assay: Test C pre-/postemergence herbicide test; assay type: in vivo, Helianthus annuus; conditions: for Plant response rating (0 = no effect, 100 = complete control), Sunflower / Plant response rating, Sunflower: preemergence; for Sunflower plant response rating: Preemergence, scale 0 to 100, 0 no effect, 100 complete control
In short: as §1

morningglory = assay: Test A pre-/postemergence herbicide test; assay type: in vivo, Ipomoea spp.
In short: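 Visual injury rating on a 0–100 scale (0 no effect, 100 complete control) versus untreated controls, about ten days after treatment in greenhouse. Pre: directed soil spray onto seeded sandy loam. Post: spray to runoff on plants 2–10 cm tall at one- to two-leaf stage.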

[2] = 125 g ai/ha, scale 0 (no effect) to 100 (complete control), visual, 12 to 14 days, preemergence
[3] = 250 g ai/ha, scale 0 to 100 (0 no effect, 100 complete control), visual, 12 to 14 days, preemergence
[4] = Preemergence, scale 0 to 100, 0 no effect, 100 complete control
[5] = 125 g ai/ha, scale 0 (no effect) to 100 (complete control), visual, 12 to 14 days
[6] = 250 g ai/ha, scale 0 to 100 (0 no effect, 100 complete control), visual, 12 to 14 days
[7] = Postemergence, 500 g ai/ha, 0 to 100 scale, 0 no effect, 100 complete control
[8] = Postemergence, 2000 g ai/ha, 0 to 100 scale, 0 no effect, 100 complete control
[9] = Preemergence, 500 g ai/ha, visual rating, 0 to 100 scale (0 no effect, 100 complete control)
[10] = 62 g ai/ha, preemergence, scale 0 to 100, 0 no effect, 100 complete control
[11] = Preemergence, 2000 g ai/ha, visual rating, 0 to 100 scale (0 no effect, 100 complete control)
[12] = 250 g ai/ha, scale 0-100, preemergence
[13] = 500 g ai/ha, scale 0 to 100 (0 no effect, 100 complete control), visual, 12 to 14 days
[14] = preemergence, 500 g ai/ha, visual injury, 0 to 100 scale (0 no effect, 100 complete control)

SMILES | Plant response rating, Bermudagrass (bermudagrass; [2]) | Plant response rating, Bermudagrass (bermudagrass; [3]) | Bermudagrass plant response rating (bermudagrass; [4]) | Plant response rating, Nightshade (eastern black nightshade; [5]) | Nightshade plant response rating (eastern black nightshade; 500 g ai/ha) | Plant response rating, Sunflower [1, 5] | Sunflower plant response rating ([1]; 500 g ai/ha) | Plant response rating, Morningglory (morningglory; [8]) | Morningglory plant response rating (morningglory; [9]) | Plant response rating, Bermudagrass (bermudagrass; [10]) | Plant response rating, Nightshade (eastern black nightshade; 62 g ai/ha, scale 0 to 100) | Plant response rating, Sunflower ([1]; 62 g ai/ha, scale 0 to 100) | Morningglory plant response rating (morningglory; [7]) | Morningglory plant response rating (morningglory; [11]) | Plant response rating, Bermudagrass (bermudagrass; [12]) | Plant response rating, Nightshade (eastern black nightshade; 250 g ai/ha, scale 0-100) | Plant response rating, Nightshade (eastern black nightshade; [13]) | Plant response rating, Sunflower ([1]; 250 g ai/ha, scale 0-100) | Plant response rating, Sunflower [1, 13] | Morningglory plant response rating (morningglory; [14]) | also measured
CCn1nc(C(C)(C)C)cc1C(=O)Nc1cccc(C(=O)NCC(C)C)c1 [Compound 61] | 70 | 80 | 95 | 20 | 90 | 0 | 0 | 20 | 20 | – | – | – | – | – | – | – | – | – | – | – | Plant response rating (0 = no effect, 100 = complete control), Bermudagrass (bermudagrass; 62 g ai/ha, preemergence): 10; Plant response rating (0 = no effect, 100 = complete control), Nightshade (eastern black nightshade; 62 g ai/ha): 0; Plant response rating, Nightshade (eastern black nightshade; [6]): 40; Plant response rating (0 = no effect, 100 = complete control), Sunflower ([1]; 62 g ai/ha): 0; Plant response rating, Sunflower [1, 6]: 0; Plant response rating, Morningglory (morningglory; [7]): 10; Morningglory plant response rating (morningglory; Preemergence, 2000 g ai/ha, 0 to 100 scale, 0 no effect, 100 complete control): 50
CCN(CC)C(=O)c1ccnc(NC(=O)c2cc(C(C)(C)C)nn2CC)c1 [Compound 153] | 95 | 95 | 100 | 100 | 100 | 0 | 0 | 85 | 10 | 70 | 90 | 0 | 35 | 55 | – | – | – | – | – | – | –
C=CCNC(=O)c1cccc(NC(=O)c2cc(C(C)(C)C)nn2C)n1 [Compound 318] | 70 | – | 95 | 90 | – | – | – | 55 | – | 10 | 80 | 0 | 50 | 50 | 90 | 95 | 95 | 0 | 0 | 20 | Bermudagrass plant response rating (bermudagrass; Postemergence, scale 0 to 100): 80
CCc1nc(C(C)(C)C)sc1C(=O)Nc1cccc(C(=O)N(CC)CC)c1 [Compound 205] | 100 | – | 100 | 100 | 100 | 0 | 0 | 20 | – | 90 | 80 | 0 | 25 | 45 | 100 | 100 | – | 0 | – | 30 | –
CCCCOc1cccc(NC(=O)c2cc(C(C)(C)C)nn2CC)c1 [Compound 137] | 100 | 100 | 100 | 85 | 90 | 0 | 0 | 40 | 20 | – | – | – | 25 | 35 | – | – | – | – | – | – | Plant response rating (0 = no effect, 100 = complete control), Bermudagrass (bermudagrass; 62 g ai/ha, preemergence): 50; Plant response rating (0 = no effect, 100 = complete control), Nightshade (eastern black nightshade; 62 g ai/ha): 60; Plant response rating (0 = no effect, 100 = complete control), Sunflower ([1]; 62 g ai/ha): 0
CCN(CC)C(=O)c1cccc(NC(=O)c2sc(C(C)(C)C)nc2C)c1 [Compound 199] | 85 | – | 100 | 95 | 100 | 0 | 0 | 70 | – | 55 | 85 | 0 | 45 | 55 | 100 | 100 | – | 0 | – | 15 | –
CCc1nc(C(C)(C)C)sc1C(=O)Nc1cccc(C(=O)NCC2CC2)c1 [Compound 212] | 75 | – | 100 | 100 | – | 0 | – | 20 | – | 60 | 70 | 0 | 15 | 65 | 80 | 100 | 100 | 0 | 0 | 30 | Bermudagrass plant response rating (bermudagrass; Postemergence, scale 0 to 100): 50; Plant response rating, Bermudagrass (bermudagrass; Postemergence, 250 g ai/ha, scale 0 to 100, 0 no effect, 100 complete control): 10; Plant response rating, Bermudagrass (bermudagrass; postemergence, 125 g ai/ha, scale 0 to 100): 0; Plant response rating, Bermudagrass (bermudagrass; postemergence, 62 g ai/ha, scale 0 to 100): 0
CCN(CC)C(=O)c1cccc(NC(=O)c2cc(C(C)(C)C)nn2C)n1 [Compound 314] | 60 | – | 90 | 85 | – | – | – | 50 | – | 10 | 60 | 0 | 30 | 30 | 60 | 90 | 100 | 20 | 45 | 10 | –
